Where “and” joins values, the source holds several entries; their conditions need not be identical. Equal values may be shown once.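 Tested at 5 concentrations; 48 h exposure; 96-well plates; endpoints linearly interpolated, else capped at highest concentration. GI50 marks 50% less growth. TGI is the concentration that stops growth completely.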
How the values were obtained:
Assay in all cases: DTP human tumour cell line panel, 48 h
NCI-H23 lung = test system: NCI-H23 lung
PC-3 prostate = test system: PC-3 prostate
SF-539 CNS = test system: SF-539 CNS
SK-MEL-5 melanoma = test system: SK-MEL-5 melanoma
UO-31 renal = test system: UO-31 renal
A549 NSCLC = test system: A549 NSCLC
UACC-62 melanoma = test system: UACC-62 melanoma
SN12C renal = test system: SN12C renal

Structure (SMILES) | TGI (NCI-H23 lung) [µM] | TGI (PC-3 prostate) [µM] | TGI (SF-539 CNS) [µM] | TGI (SK-MEL-5 melanoma) | TGI (UO-31 renal) [µM] | TGI (A549 NSCLC) [µM] | TGI (UACC-62 melanoma) [µM] | TGI (SN12C renal) [µM] | GI50 (NCI-H23 lung) | GI50 (PC-3 prostate) [µM] | GI50 (SF-539 CNS) [µM] | GI50 (SK-MEL-5 melanoma) | GI50 (UO-31 renal) [µM] | GI50 (A549 NSCLC) [µM] | GI50 (UACC-62 melanoma) [µM] | GI50 (SN12C renal)
COc1ccc(Cc2coc3ccccc3c2=O)cc1OC | > 100 | > 100 | > 100 | 67.8 µM | > 100 | > 100 | > 100 | > 100 |  |  |  |  |  |  |  | 
CC(C)(C)c1ccc(Oc2ccc(N)cn2)cc1 | > 100 | > 100 | > 100 | 79.2 µM | > 100 | > 100 | > 100 | > 100 | 53 µM | 8.02 | 18.8 | 25.8 µM | 1.75 | 9.19 | 61.3 | 4.64 µM
CC1C(C)N(C(=O)CCl)c2ccccc2N1C(=O)CCl (stereo not drawn) | 2.68 | 2.85 | 2.89 | 2.85 µM | 0.346 | 6.11 | 2.1 | 3.05 | 0.705 µM | 1.19 | 1.4 | 1.27 µM | 0.168 | 2.25 | 0.624 | 0.793 µM
C=C/C=C/[C@@H](O)CC(=C)C[C@H]1OC2[C@H](C)[C@@H](OC(=O)C[C@H]3C[C@H](OC(C)=O)C[C@@]4(C[C@@](C)(O)C[C@H](CC(=C)[C@@H](C)[C@H](OC(C)=O)[C@H](C)C(=O)C[C@@H]5C[C@H](OC)CC6(C[C@@H](O)C[C@H](/C=C\CCC[C@H]7O[C@](O)(C=C[C@H]7C)[C@H]2O)O6)O5)O4)O3)[C@@H]1O | < 0.0025 | > 25 | < 0.0025 | 0.00571 µM and 0.00327 µM | > 10.9 |  |  |  | 0.000475 µM and < 0.0025 µM | 0.0025 | < 0.0025 | 0.000327 µM and 0.0025 µM |  |  |  | 0.000339 µM and 0.0025 µM
COc1ncc(Nc2ncc([C@@H](C)N3CCN(S(C)(=O)=O)CC3)cc2-c2nc(C)nc(N)n2)cc1F | > 100 | > 100 | 1.45 | 9.04 µM | 1.89 | > 40.7 | 1.2 | > 33.6 | 3.86 µM | < 0.0139 | 0.0876 | 2.09 µM | < 0.0114 | 0.186 | < 0.0113 | 0.0686 µM
Nc1nc([Se])c2ncn(C3OC(CO)C(O)C3O)c2n1 (stereo not drawn) | > 100 | > 100 | > 100 | 89.6 µM | > 100 | > 100 | > 100 | > 100 | 5.05 µM | 24.8 | 19.3 | 25.2 µM | 24.3 | 25.1 | 4.16 | 52.9 µM
COC(=O)c1ccc(CN2C(=O)C(Cl)=C(Nc3cccc(Cl)c3C)C2=O)cc1 | > 100 | > 100 | 58.7 | 3.94 µM | > 100 | > 100 | > 100 | 55.4 | 10.3 µM | 37.6 | 23.1 | 1.08 µM | 15.1 | 37.2 | 13.4 | 18.2 µM
